Measured values from patent US12016870B2, “Agents for use in the treatment of cardiac arrhythmia” (priority 2018, dated 2024).

Tests used:
[1] = system: tissue engineered strands of rat ventricular cardiomyocytes; assay: Conduction velocity along linear tissue engineered cardiomyocyte strands, optical recording with di-8-ANEPPS; assay type: cell-based; details: for Conduction velocity (CV) along strands of cardiomyocytes: mean+/-SD
Method: The effects of Gb3 on impulse propagation characteristics were investigated in tissue engineered strands of rat ventricular cardiomyocytes where impulse propagation was recorded using the voltage sensitive dye di-8-ANEPPS as described below.
(§1) Impulse propagation along the patterned preparations was followed optically using a fast voltage-sensitive dye (Rohr et al., 1994, Biophys J., 67(3):1301-1315). In short, the preparations were stained for 3 to 4 minutes with 1 mL of the superfusion solution containing […] of the voltage-sensitive dye di-8-ANEPPS (Molecular Probes). The dye was excited by a short-arc xenon lamp driven by a low-ripple power supply (Optiquip). The light was, after passing a shutter (VS25S21 MO, Vincent Assoc), short-pass filtered (570 EFSP, Omega) and deflected toward the objective by means of a dichroic mirror (575 nm; Omega). Emitted fluorescence from the preparation was long-pass filtered (590 nm, Omega) and projected onto a 2-dimensional array of 379 optical fibers, which formed a hexagonal array (Rohr et al., 1998, Biophys J., 75(2):1062-1075). From the entire array, ≤80 fibers were selected according to the shape of a given preparation and were connected to individual photodiodes. The resulting photocurrents were converted to voltages and amplified (typical overall gain of 2.5×10^9 V/A f0=1.6 kHz). The conditioned signals were simultaneously sampled at 20 kHz/channel by a computer-based data acquisition system. Experiments were performed with a 20×, 0.75 numerical aperture (NA) objective (each detector monitored a circular area with a diameter of 50 um corresponding to 4 to 10 cells contributing to the signal) permitting assessment of activation along the preparations for distances up to 1 mm.
After mounting the preparations in the experimental chamber, control superfusion was started (Hanks' balanced salt solution (HBSS), containing (mmol/L) NaCl 137, KCl 5.4, CaCl2 1.3, MgSO4 0.8, NaHCO3 4.2, KH2PO4 0.5, NaH2PO4 0.3, and HEPES 10, which was titrated to pH 7.40 with NaOH). The preparations were stimulated with bipolar electrodes consisting of glass micropipettes (filling, HBSS with 1% agar) and a silver wire coiled around the shank of the electrode. The electrodes were attached to micromanipulators (DC-3K, Marzhauser) and placed at a sufficient distance from the measurement site (1 mm) to (1) avoid electronically mediated stimulation artifacts to distort the signal of interest and (2) permit propagation to reach steady-state conditions at the site of the measurement. Rectangular impulses (duration, 1 ms; 2-3 times threshold intensity) were delivered to the preparations at a basic cycle length of 500 ms by a stimulator (SD9, Grass Instruments) for at least 10 seconds before a given optical recording. All experiments were performed at a temperature of 36+/−0.4° C.
The raw data were analyzed by programming routines written in Interactive Data Language (IDL; Creaso). The data processing typically involved manual selection of the upstroke portions of the action potentials to omit any signal distortion due to motion artifacts occurring several milliseconds after the upstrokes. The data were digitally low-pass filtered and signal amplitudes obtained under control conditions were set to 100%.
While control preparations conducted action potentials (APs) at a speed of 321.8±20.9 mm/sec (N=15), CVs in strands incubated with 10 nM Gb3 were increased by over 20% to 390.2±21.3 mm/sec (N=6, p<0.0001 versus control).

[2] = system: multi-junction preparations (branched tissue architecture) of rat cardiomyocytes; assay: Conduction velocity in branched (multi-junction) cardiomyocyte preparations, model of discontinuous conduction; assay type: cell-based; details: 10 nmol/L Gb3 for 24 hrs
Method: as §1, with “The resulting photocurrents were converted to voltages and amplified (typical overall gain of 2.5×10^9 V/A f0=1.6 kHz). The conditioned signals were simultaneously sampled at 20 kHz/channel by a computer-based data acquisition system.” left out, “mm. […]” for “mm.”
The raw data were analyzed by programming routines written in Interactive Data Language (IDL; Creaso). […]

For globotriaosylceramide [Gb3], the “Increase of CV versus control” value ([1]; 10 nM Gb3, 24 hours exposure) was “over 20%”, the “Conduction velocity (CV) along strands of cardiomyocytes” value (“Conduction velocity (CV) along strands” for short) ([1]; 10 nM Gb3, 24 hours exposure, N=6, p<0.0001 versus control (control 321.8±20.9 mm/sec)) was 390.2±21.3 mm/sec and the “Conduction velocity (CV) along strands” value ([1]; 100 nM Gb3, 24 hours exposure, p<0.005 vs control) was 358.8±20.3 mm/sec. The “Conduction velocity (CV) along strands” value ([1]; 1 μM Gb3, 24 hours exposure, p=0.3 vs control) was 338.4±27.3 mm/sec, the Cytotoxic effects ([1]; all Gb3 concentrations used, 24 hours exposure) was “None of the concentrations of Gb3 used were associated with cytotoxic effects” and the “Increase in CV in branched preparations treated with Gb3” value ([2]; versus control branched preparations) was ~67%. For the same substance, the “CV in multi-junction preparations as % of linear strands” value ([2]; N=25, normalized to linear strands grown in parallel (control multi-junction 57.4±6.7%)) was 84.7±2.3%.
